Where “and” joins values, the source holds several entries; their conditions need not be identical. Equal values may be shown once.
Assay: molar heat capacity at constant pressure
Conditions: 101.33 kPa, Crystal

O=P([O-])([O-])[O-].[Er+3] [erbium phosphate]
Conditions	molar heat capacity at constant pressure
2 K, Drop calorimetry	0.189 J/K/mol
2.05 K, Relaxation Calorimetry	0.1821 J/K/mol
2.06 K, Relaxation Calorimetry	0.1815 J/K/mol
2.15 K, Relaxation Calorimetry	0.169 J/K/mol and 0.1693 J/K/mol
2.23 K, Relaxation Calorimetry	0.1585 J/K/mol
2.24 K, Relaxation Calorimetry	0.1587 J/K/mol
2.33 K, Relaxation Calorimetry	0.1486 J/K/mol and 0.1492 J/K/mol
2.42 K, Relaxation Calorimetry	0.1398 J/K/mol
2.52 K, Relaxation Calorimetry	0.1308 J/K/mol and 0.1303 J/K/mol
2.62 K, Relaxation Calorimetry	0.1226 J/K/mol
2.63 K, Relaxation Calorimetry	0.1216 J/K/mol
2.73 K, Relaxation Calorimetry	0.1149 J/K/mol
2.74 K, Relaxation Calorimetry	0.1147 J/K/mol
2.84 K, Relaxation Calorimetry	0.1079 J/K/mol
2.85 K, Relaxation Calorimetry	0.1075 J/K/mol
2.96 K, Relaxation Calorimetry	0.1012 J/K/mol
2.97 K, Relaxation Calorimetry	0.101 J/K/mol
3 K, Drop calorimetry	0.0991 J/K/mol
3.08 K, Relaxation Calorimetry	0.09512 J/K/mol
3.09 K, Relaxation Calorimetry	0.095 J/K/mol
3.21 K, Relaxation Calorimetry	0.08975 J/K/mol
3.22 K, Relaxation Calorimetry	0.0889 J/K/mol
3.34 K, Relaxation Calorimetry	0.08523 J/K/mol
3.35 K, Relaxation Calorimetry	0.0846 J/K/mol
3.48 K, Relaxation Calorimetry	0.08127 J/K/mol and 0.0813 J/K/mol
3.62 K, Relaxation Calorimetry	0.07825 J/K/mol
3.64 K, Relaxation Calorimetry	0.0777 J/K/mol
3.77 K, Relaxation Calorimetry	0.07611 J/K/mol and 0.0763 J/K/mol
3.93 K, Relaxation Calorimetry	0.0754 J/K/mol
4 K, Drop calorimetry	0.0755 J/K/mol
4.1 K, Relaxation Calorimetry	0.07633 J/K/mol and 0.0764 J/K/mol
4.27 K, Relaxation Calorimetry	0.07937 J/K/mol and 0.079 J/K/mol
4.44 K, Relaxation Calorimetry	0.08477 J/K/mol
4.45 K, Relaxation Calorimetry	0.0843 J/K/mol
4.62 K, Relaxation Calorimetry	0.09293 J/K/mol
4.63 K, Relaxation Calorimetry	0.0925 J/K/mol
4.82 K, Relaxation Calorimetry	0.1048 J/K/mol and 0.1045 J/K/mol
5.02 K, Relaxation Calorimetry	0.1211 J/K/mol and 0.1208 J/K/mol
5.22 K, Relaxation Calorimetry	0.1421 J/K/mol and 0.142 J/K/mol
5.44 K, Relaxation Calorimetry	0.1701 J/K/mol and 0.1698 J/K/mol
5.67 K, Relaxation Calorimetry	0.2055 J/K/mol and 0.2049 J/K/mol
5.91 K, Relaxation Calorimetry	0.2491 J/K/mol and 0.2489 J/K/mol
6 K, Drop calorimetry	0.268 J/K/mol
6.15 K, Relaxation Calorimetry	0.3031 J/K/mol and 0.3029 J/K/mol
6.41 K, Relaxation Calorimetry	0.3662 J/K/mol and 0.3497 J/K/mol
6.67 K, Relaxation Calorimetry	0.4408 J/K/mol
6.68 K, Relaxation Calorimetry	0.4451 J/K/mol
6.96 K, Relaxation Calorimetry	0.5353 J/K/mol and 0.5363 J/K/mol
7.24 K, Relaxation Calorimetry	0.6377 J/K/mol
7.25 K, Relaxation Calorimetry	0.6369 J/K/mol
7.55 K, Relaxation Calorimetry	0.7594 J/K/mol and 0.7584 J/K/mol
7.87 K, Relaxation Calorimetry	0.893 J/K/mol and 0.8931 J/K/mol
8 K, Drop calorimetry	0.956 J/K/mol
8.2 K, Relaxation Calorimetry	1.047 J/K/mol and 1.049 J/K/mol
8.54 K, Relaxation Calorimetry	1.218 J/K/mol
8.56 K, Vacuum adiabatic calorimetry	1.262 J/K/mol
8.9 K, Relaxation Calorimetry	1.407 J/K/mol and 1.404 J/K/mol
9.19 K, Vacuum adiabatic calorimetry	1.587 J/K/mol
9.27 K, Relaxation Calorimetry	1.607 J/K/mol and 1.604 J/K/mol
9.65 K, Relaxation Calorimetry	1.831 J/K/mol
9.84 K, Vacuum adiabatic calorimetry	1.971 J/K/mol
10 K, Drop calorimetry	2.222 J/K/mol
10.05 K, Relaxation Calorimetry	2.057 J/K/mol and 2.046 J/K/mol
10.26 K, Relaxation Calorimetry	2.218 J/K/mol
10.52 K, Vacuum adiabatic calorimetry	2.384 J/K/mol
10.53 K, Relaxation Calorimetry	2.408 J/K/mol
10.66 K, Relaxation Calorimetry	2.462 J/K/mol
10.91 K, Relaxation Calorimetry	2.636 J/K/mol
11.1 K, Relaxation Calorimetry	2.733 J/K/mol
11.21 K, Vacuum adiabatic calorimetry	2.814 J/K/mol
11.35 K, Relaxation Calorimetry	2.908 J/K/mol
11.56 K, Relaxation Calorimetry	3.016 J/K/mol
11.81 K, Relaxation Calorimetry	3.191 J/K/mol
11.92 K, Vacuum adiabatic calorimetry	3.253 J/K/mol
12.04 K, Relaxation Calorimetry	3.31 J/K/mol
12.29 K, Relaxation Calorimetry	3.486 J/K/mol
12.53 K, Relaxation Calorimetry	3.616 J/K/mol
12.64 K, Vacuum adiabatic calorimetry	3.701 J/K/mol
12.78 K, Relaxation Calorimetry	3.791 J/K/mol
13.05 K, Relaxation Calorimetry	3.929 J/K/mol
13.3 K, Relaxation Calorimetry	4.098 J/K/mol
13.37 K, Vacuum adiabatic calorimetry	4.111 J/K/mol
13.59 K, Relaxation Calorimetry	4.242 J/K/mol
13.84 K, Relaxation Calorimetry	4.403 J/K/mol
14.12 K, Vacuum adiabatic calorimetry	4.51 J/K/mol
14.15 K, Relaxation Calorimetry	4.549 J/K/mol
14.41 K, Relaxation Calorimetry	4.708 J/K/mol
14.74 K, Relaxation Calorimetry	4.863 J/K/mol
14.88 K, Vacuum adiabatic calorimetry	4.899 J/K/mol
14.99 K, Relaxation Calorimetry	5.019 J/K/mol
15 K, Drop calorimetry	4.903 J/K/mol
15.35 K, Relaxation Calorimetry	5.181 J/K/mol
15.6 K, Relaxation Calorimetry	5.328 J/K/mol
15.65 K, Vacuum adiabatic calorimetry	5.247 J/K/mol
15.99 K, Relaxation Calorimetry	5.488 J/K/mol
16.24 K, Relaxation Calorimetry	5.627 J/K/mol
16.43 K, Vacuum adiabatic calorimetry	5.599 J/K/mol
16.65 K, Relaxation Calorimetry	5.792 J/K/mol
16.91 K, Relaxation Calorimetry	5.923 J/K/mol
17.21 K, Vacuum adiabatic calorimetry	5.933 J/K/mol
17.34 K, Relaxation Calorimetry	6.085 J/K/mol
17.6 K, Relaxation Calorimetry	6.206 J/K/mol
18 K, Vacuum adiabatic calorimetry	6.247 J/K/mol
18.06 K, Relaxation Calorimetry	6.369 J/K/mol
18.32 K, Relaxation Calorimetry	6.493 J/K/mol
18.8 K, Vacuum adiabatic calorimetry	6.533 J/K/mol
18.81 K, Relaxation Calorimetry	6.67 J/K/mol
19.07 K, Relaxation Calorimetry	6.774 J/K/mol
19.59 K, Vacuum adiabatic calorimetry	6.837 J/K/mol
19.6 K, Relaxation Calorimetry	6.935 J/K/mol
19.85 K, Relaxation Calorimetry	7.052 J/K/mol
20 K, Drop calorimetry	6.881 J/K/mol
20.41 K, Relaxation Calorimetry	7.222 J/K/mol
20.67 K, Relaxation Calorimetry	7.329 J/K/mol
20.84 K, Vacuum adiabatic calorimetry	7.265 J/K/mol
21.26 K, Relaxation Calorimetry	7.493 J/K/mol
21.52 K, Relaxation Calorimetry	7.59 J/K/mol
22.14 K, Relaxation Calorimetry	7.771 J/K/mol
22.39 K, Vacuum adiabatic calorimetry	7.793 J/K/mol
22.4 K, Relaxation Calorimetry	7.869 J/K/mol
23.06 K, Relaxation Calorimetry	8.068 J/K/mol
23.32 K, Relaxation Calorimetry	8.163 J/K/mol
23.97 K, Vacuum adiabatic calorimetry	8.29 J/K/mol
24.02 K, Relaxation Calorimetry	8.364 J/K/mol
24.29 K, Relaxation Calorimetry	8.456 J/K/mol
25 K, Drop calorimetry	8.631 J/K/mol
25.02 K, Relaxation Calorimetry	8.665 J/K/mol
25.28 K, Relaxation Calorimetry	8.765 J/K/mol
25.55 K, Vacuum adiabatic calorimetry	8.799 J/K/mol
26.06 K, Relaxation Calorimetry	9.002 J/K/mol
26.32 K, Relaxation Calorimetry	9.091 J/K/mol
27.13 K, Vacuum adiabatic calorimetry	9.314 J/K/mol
27.41 K, Relaxation Calorimetry	9.432 J/K/mol
28.27 K, Relaxation Calorimetry	9.673 J/K/mol
28.53 K, Relaxation Calorimetry	9.786 J/K/mol
28.72 K, Vacuum adiabatic calorimetry	9.871 J/K/mol
29.45 K, Relaxation Calorimetry	10.07 J/K/mol
29.72 K, Relaxation Calorimetry	10.17 J/K/mol
30 K, Drop calorimetry	10.43 J/K/mol
30.31 K, Vacuum adiabatic calorimetry	10.46 J/K/mol
30.68 K, Relaxation Calorimetry	10.5 J/K/mol
30.95 K, Relaxation Calorimetry	10.6 J/K/mol
31.9 K, Vacuum adiabatic calorimetry	11.11 J/K/mol
31.97 K, Relaxation Calorimetry	10.96 J/K/mol
32.22 K, Relaxation Calorimetry	11.08 J/K/mol
33.31 K, Relaxation Calorimetry	11.44 J/K/mol
33.49 K, Vacuum adiabatic calorimetry	11.75 J/K/mol
33.56 K, Relaxation Calorimetry	11.58 J/K/mol
34.69 K, Relaxation Calorimetry	11.99 J/K/mol
34.95 K, Relaxation Calorimetry	12.12 J/K/mol
35 K, Drop calorimetry	12.41 J/K/mol
35.09 K, Vacuum adiabatic calorimetry	12.32 J/K/mol
36.69 K, Vacuum adiabatic calorimetry	13.09 J/K/mol
38.29 K, Vacuum adiabatic calorimetry	13.85 J/K/mol
39.9 K, Vacuum adiabatic calorimetry	14.59 J/K/mol
40 K, Drop calorimetry	14.63 J/K/mol
41.51 K, Vacuum adiabatic calorimetry	15.35 J/K/mol
43.13 K, Vacuum adiabatic calorimetry	16.12 J/K/mol
44.75 K, Vacuum adiabatic calorimetry	16.95 J/K/mol
45 K, Drop calorimetry	17.07 J/K/mol
46.39 K, Vacuum adiabatic calorimetry	17.8 J/K/mol

From the NIST ThermoML archive (doi:10.1016/j.tca.2012.02.002)
